Measurements from patent publication US20030207812A1, “Cd45 inhibitors” (priority 2002, published 2003).

Assays:
[1] = Cytotoxicity assay (Calcein-AM uptake); settings: human, PHA-expanded T-cell lymphoblasts from PBMC
Experimental: Calcein-AM (Molecular Probes. Eugene, Oreg.) uptake, as a quantitative measure of cell viability, was used to evaluate the toxic effect of compounds on T cells.
The T-cell lymphoblasts were purified by separation over Lymphoprep, plated at 2×10^5/well in a round bottom 96-well plate containing RPMI with compound and incubated overnight at 37° C. in an incubator containing 5% CO2. The dilution scheme and culture media were the same as those used in the T-cell proliferation assay. After the incubation period, cells were washed with Dulbecco's phosphate-buffered saline (D-PBS) and incubated with 1 μM Calcein-AM for 30-45 mim in D-PBS as described in the technical sheet provided with The LIVE/DEAD Viability/Cytotoxicity Kit from Molecular Probes.

[2] = system: T cells (PBMC); test: cells; format: cell-based, human; settings: human PBMC, OKT3 30 ng/mL, [3H]thymidine; read-out: T cell prolif. IC50
Experimental: Cell isolation and T cell proliferation assay:
Whole blood was obtained from healthy human blood donors. Peripheral blood mononuclear cells (“PBMC”) were isolated using Lymphoprep density-gradient centrifugation (Nycomed Amersham, Oslo, Norway), washed, counted and resuspended at 2×10^6 cells/mL in RPMI 1640 medium containing glutamine, 0.1 mg/mL gentamycin and 10% heat inactivated human serum. PBMC were transferred to 96-well plates (2×10^5 cells/well) containing compound or vehicle control, with the final concentration of DMSO not to exceed 0.3%, and incubated for 1 hour before addition of the activating anti-CD3 antibody, OKT3 (30ng/mL). After 24 hours in culture, the cells were pulsed with [^3H]thymidine (1 μCi/well) overnight and harvested the next day onto 96-well Packard GF/C filter plates using a Packard Cell Harvester (Packard Instruments, Meriden, Conn.). The filter plate was dried, the bottom of the plate sealed, 25 μL of Microscint 20 scintillation fluid added to each well, the top of the plate sealed with TopSeal-A, and the plate counted on a Packard TopCount. The data from the TopCount is transferred into Excel 5 (Microsoft, Redmond, Wash.) and formatted for EC50 determination using Prism software (GraphPad Software, San Diego, Calif.).

[3] = biological target: T1, CD45 (Homo sapiens, UniProt P08575); test: Phosphatase assay using lck 10-mer as substrate; format: biochemical; settings: CD45 phosphatase, lck carboxy-terminal peptide TEGQpYQPQP substrate, pH 7.2; read-out: Ick IC50
T1 construct: incubating the cytosolic portion of CD45 with the compounds and p-nitrophenyl phosphate (pNPP); purchased BIOMOL (Plymouth Meeting, Pa.)
T1 sequence (P08575 599-1306 limits assumed): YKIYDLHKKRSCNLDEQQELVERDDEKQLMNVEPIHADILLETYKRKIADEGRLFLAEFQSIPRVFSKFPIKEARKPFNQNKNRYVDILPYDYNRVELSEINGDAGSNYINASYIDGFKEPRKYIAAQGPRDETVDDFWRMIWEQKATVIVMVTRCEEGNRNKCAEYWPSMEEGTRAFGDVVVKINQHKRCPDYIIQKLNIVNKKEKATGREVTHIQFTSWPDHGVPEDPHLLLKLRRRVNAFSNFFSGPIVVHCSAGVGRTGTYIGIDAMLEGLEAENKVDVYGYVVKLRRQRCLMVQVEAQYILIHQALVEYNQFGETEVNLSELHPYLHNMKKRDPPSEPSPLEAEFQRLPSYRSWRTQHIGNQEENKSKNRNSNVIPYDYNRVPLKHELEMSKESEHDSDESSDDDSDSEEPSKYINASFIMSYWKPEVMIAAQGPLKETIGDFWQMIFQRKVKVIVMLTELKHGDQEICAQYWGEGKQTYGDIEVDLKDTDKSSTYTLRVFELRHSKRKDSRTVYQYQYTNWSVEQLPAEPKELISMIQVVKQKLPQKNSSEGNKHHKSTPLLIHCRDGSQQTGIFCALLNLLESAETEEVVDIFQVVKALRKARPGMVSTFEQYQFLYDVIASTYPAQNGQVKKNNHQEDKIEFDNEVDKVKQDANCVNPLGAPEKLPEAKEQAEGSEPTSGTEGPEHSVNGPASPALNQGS
Experimental: Phosphatase assay using lck 10-mer as substrate:
Phosphatase activity was assayed in 96 well plates in a buffer containing final concentrations of 25 mM HEPES at pH 7.2, 5 mM DTT and 10 μg/mL BSA using the lck carboxy-terminal peptide TEGQpYQPQP as the substrate (Cho, H., Krishnaraj, R., Itoh, M., Kitas, E., Bannwarth, W., Saito, H., Walsh, C. T. 1993. Substrate specificities of catalytic fragments of protein tyrosine phosphatases (HPTPb, LAR, and CD45) toward the phosphotyrosylpeptide substrates and thiophosphotyrosylated peptides as inhibitors. Protein Science 2:977-984). Compounds were tested in a range from 30 to 0.01 μM in a final concentration of 5% DMSO. Enzyme was incubated with substrate with or without compound, at room temperature for 1.5 h. At the end of the incubation period, BIOMOL “Green Reagent” (BIOMOL, Plymouth Meeting, Pa.) was added to each well, the plates incubated at room temperature for 30 min and absorbance read at 620 nm.

[4] = biological target: T1, CD45; test: Phosphatase assay using pNPP as substrate; format: biochemical; settings: CD45 phosphatase, pNPP substrate, pH 7.0; read-out: pNPP IC50
Experimental: Phosphatase assay using pNPP as substrate:
CD45 enzyme was obtained from BIOMOL (Plymouth Meeting, Pa.). Phosphatase activity was assayed in a buffer containing final concentrations of 25 mM imidazole at pH 7.0, 50 mM NaCl, 2.5 mM ethylenediaminetetraacetic acid (“EDTA”), 5 mM dithiothreitol (“DTT”) and 10 μg/mL bovine serum albumin (“BSA”) using pNPP as a substrate.

Compound | CC50 [1] [nM] | IC50 [2] [nM] | IC50 [3] [nM] | IC50 [4] [nM]
O=C1C(=O)c2cc(-c3ccc4c(c3)OCO4)ccc2-c2ccccc21 [Example 21, 2-Benzo[1,3]dioxol-5-yl-phenanthrene-9,10-dione] | 4900 | 1800 | > 30000 | 990
CC(=O)c1ccc2c(c1)-c1ccccc1C(=O)C2=O [Example 100, 3-Acetyl-phenanthrene-9,10-dione] | 3500 | 800 | 4200 | 800
COC(=O)CCCC(=O)Nc1ccc2c(c1)C(=O)C(=O)c1cccc([N+](=O)[O-])c1-2 [Example 65, 4-(5-Nitro-9,10-dioxo-9,10-dihydro-phenanthren-2-ylcarbamoyl)-butyric Acid Methyl Ester] | 15000 | 600 | 3100 | 1100
Nc1ccc2c(c1)C(=O)C(=O)c1cccc([N+](=O)[O-])c1-2 [Example 84, 2-amino-5-nitro-phenanthrene-9,10-dione] | 4000 | 700 | 2600 | 800
COC(=O)CCCC(=O)Nc1ccc2c(c1)C(=O)C(=O)c1ccccc1-2 [Example 70, 4-(9,10-Dioxo-9,10-dihydro-phenanthren-2-ylcarbamoyl)-butyric Acid Methyl Ester] | 3000 | 500 | 4700 | 400
COC(=O)CCCC(=O)Nc1ccc2c(c1)C(=O)C(=O)c1cccc(NC(=O)CCCC(=O)OC)c1-2 [Example 74, 4-[5-(4-Methoxycarbonyl-butyrylamino)-9,10-dioxo-9,10-dihydro-phenanthren-2-ylcarbamoyl]-butyric Acid Methyl Ester] | 19000 | 2600 | 3300 | 800
CCOc1ccccc1-c1ccc2c(c1)C(=O)C(=O)c1ccccc1-2 [Example 22, 2-(2-Ethoxy-phenyl)-phenanthrene-9,10-dione] | > 30000 | 700 | 9700 | 3600
O=C1C(=O)c2cc(Br)ccc2-c2ccccc21 [Example 96, 2-Bromo-phenanthrene-9,10-dione] | 5000 | 600 | 3100 | 370
CC(=O)c1ccc2c(c1)C(=O)C(=O)c1ccccc1-2 [Example 101, 2-Acetyl-phenanthrene-9,10-dione] | 4500 | 1100 | 2900 | 800
COC(=O)CCCCCCC(=O)Nc1ccc2c(c1)C(=O)C(=O)c1cccc([N+](=O)[O-])c1-2 [Example 64, 7-(5-Nitro-9,10-dioxo-9,10-dihydro-phenanthren-2-ylcarbamoyl)-heptanoic Acid Methyl Ester] | 14000 | 4000 | > 30000 | 1100
COC(=O)CCC(=O)Nc1ccc2c(c1)C(=O)C(=O)c1cccc([N+](=O)[O-])c1-2 [Example 66, N-(5-Nitro-9,10-dioxo-9,10-dihydro-phenanthren-2-yl)-succinamic Acid Methyl Ester] | 13000 | 3500 | 1800 | 900
O=C(O)CNC(=O)c1ccc2c(c1)-c1ccccc1C(=O)C2=O [Example 104, [(9,10-dioxo-9,10-dihydro-phenanthrene-3-carbonyl)-amino]-acetic acid] | > 30000 | 6500 | 3400 | 500
O=C1C(=O)c2ccc([N+](=O)[O-])cc2-c2ccccc21 [Example 99, 3-Nitro-phenanthrene-9,10-dione] | 2800 | 200 | 4900 | 500
O=C1C(=O)c2cc([N+](=O)[O-])ccc2-c2ccccc21 [Example 92, 2-Nitro-phenanthrene-9,10-dione] | 10000 | 1600 | 5400 | 2400
O=C(Nc1ccc2c(c1)-c1ccccc1C(=O)C2=O)c1ccccc1F [Example 12, N-(9,10-Dioxo-9,10-dihydro-phenanthren-3-yl)-2-fluoro-benzamide] | 15000 | 3000 | 6000 | 1300
COC(=O)CCCCCCC(=O)Nc1cccc2c1-c1ccccc1C(=O)C2=O [Example 68, 7-(9,10-Dioxo-9,10-dihydro-phenanthren-4-ylcarbamoyl)-heptanoic Acid Methyl Ester] | 7500 | 1800 | 3200 | 1000
COC(=O)CCCC(=O)Nc1cccc2c1-c1ccccc1C(=O)C2=O [Example 67, 4-(9,10-Dioxo-9,10-dihydro-phenanthren-4-ylcarbamoyl)-butyric Acid Methyl Ester] | 4000 | 800 | 2200 | 1000
COC(=O)CCCCCCC(=O)Nc1ccc2c(c1)C(=O)C(=O)c1cccc(NC(=O)CCCCCCC(=O)OC)c1-2 [Example 75, 7-[5-(7-Methoxycarbonyl-heptanoylamino)-9,10-dioxo-9,10-dihydro-phenanthren-2-ylcarbamoyl]-heptanoic Acid Methyl Ester] | 13000 | 2600 | 10000 | 800
O=C1C(=O)c2cc(NC(=O)C(Cl)(Cl)Cl)ccc2-c2ccccc21 [Example 7, 2,2,2-Trichloro-N-(9,10-dioxo-9,10-dihydro-phenanthren-2-yl)-acetamide] | 9000 | 500 | 13000 | 500
CCCC(=O)Nc1ccc2c(c1)C(=O)C(=O)c1ccccc1-2 [Example 3, N-(9,10-Dioxo-9,10-dihydro-phenanthren-2-yl)-butyramide] | 8200 | 1100 | 17000 | 700
Nc1ccc2c(c1)C(=O)C(=O)c1cccc(N)c1-2 [Example 85, 2,5-diamino-phenanthrene-9,10-dione] | 4000 | 500 | 2800 | 1400
O=C1C(=O)c2cc(NC(=O)c3c(Cl)cc(Cl)cc3Cl)ccc2-c2ccccc21 [Example 6, 2,4,6-Trichloro-N-(9,10-dioxo-9,10-dihydro-phenanthren-2-yl)-benzamide] | 12000 | 1500 | 16000 | 500
COC(=O)CCC(=O)Nc1cccc2c1C(=O)C(=O)c1ccccc1-2 [Example 91, N-(9,10-Dioxo-9,10-dihydro-phenanthren-1-yl)-succinamic Acid Methyl Ester] | 9000 | 500 | 4700 | 400
O=C(Nc1ccc2c(c1)C(=O)C(=O)c1ccccc1-2)c1ccccc1F [Example 1, N-(9,10-Dioxo-9,10-dihydro-phenanthren-2-yl)-2-fluoro-benzamide] | 20000 | 3100 | 11000 | 600
